Experimental data: patent publication US10278943B2, “Method of treating hyperglycemia” (Center Laboratories, Inc., priority 2016, dated 2019)

Legend:
Format in all cases: in vivo
NIDDM mice [1] = experiment: Fasting blood glucose level in NIDDM (db/db) mice, 44 days treatment (Example 1.2)
Description: (§1) NIDDM mice and db/m+ mice (the sham control) were acclimated at least one week and then grouped for treatment when the average blood glucose value was ≥350 mg/dl after 6-hr fasting. […] Blood glucose and glycated haemoglobin (HbA1c) levels were measured on designated days after 6-hr fasting. Body weight of each test animal was also measured during the study period.
For comparison, a group of 5 db/m+ (C57BLKS/J Lar-m+/+Lepr^db) mice were used as the sham control. Blood glucose levels were measured on day 0 (before treatment), and on days 15, 30, and 45 in the 6-hr fasting animals. Results are illustrated in FIG. 2.

[2] = tested on: STZ-induced diabetic mice; experiment: Blood glucose level in STZ-induced diabetic mice (Example 1.1)
Description: Wide-type male C57BL/6 mice were rendered diabetic by multiple intraperitoneal injection of streptozotocin (STZ, 40 mg/Kg/day for 5 days, day 1 to day 5). […] For animals treated with insulin, insulin was administered subcutaneously 90 minutes before blood glucose measurement. Non-fasting blood glucose level was measured on days 6, 15, and 25, whereas fasting blood glucose (i.e., blood glucose level after fasting for 12 hrs fasting) was measured on days 40 and 50.
Results are illustrated in FIG. 1.

NIDDM mice [3] = experiment: Glycated haemoglobin (HbA1c) level in NIDDM (db/db) mice, R-VPM and/or metformin (Example 2.2); settings: for C = B − A, HbA1c level minus vehicle / HbA1c level relative to day 0 = 100: metformin 300 mg/Kg once daily
Description: as §1
(§2) For comparison, a group of 8 db/m+ (C57BLKS/J Lar-m+/+Lepr^db) mice were used as the sham control. Levels of blood glucose and HbA1c were respectively measured on day 0 (before treatment), and on day 15, 29 and 43 in the 6-hr fasting animals.
Another common indicator, glycated haemolglobin (HbA1c), which reflects average blood glucose levels over a duration was also measured in the present study. HbA1c develops when haemolglobin, a protein within red blood cells that carries oxygen throughout the body joins with glucose in the blood and becomes “glycated.” Since red blood cells in a human body survive for about 8-12 weeks before renewal, thus, the level of HbA1c gives an overall picture of average blood sugar levels over such period.

NIDDM mice [4] = experiment: Fasting blood glucose level in NIDDM (db/db) mice, R-VPM and/or metformin, 42 days (Example 2.1); settings: for blood glucose level, % of day 0: 6-hr fasting; for effect on blood glucose level on its own: low dose, 15 mg/Kg, HCl; for reduction of blood glucose level compared with the vehicle group: metformin 300 mg/Kg
Description: as §1, §2
In Table 1, blood glucose level in each treatment group was expressed as % of the control, which was the blood glucose level on day 0 and was taken to be 100%.

[5] = metformin 300 mg/Kg once daily, day 15
[6] = metformin 300 mg/Kg once daily, day 29
[7] = metformin 300 mg/Kg once daily, day 43

COc1ccc(CCN(C)CCCC(C#N)(c2ccc(OC)c(OC)c2)C(C)C)cc1OC (racemic) [VPM, 2-(3,4-dimethoxyphenyl)-5-[2-(3,4-dimethoxyphenyl)ethylmethylamino]-2-propan-2-ylpentanenitrile, reference compound]
effect on reduction of fasting blood glucose level (FIG. 2) (NIDDM mice [1]; 30 mg/Kg, bid): neither racemic verapamil HCl (30 mg/Kg, bid) nor (S)-(−)-verapamil HCl, possessed any effect
effect on fasting or non-fasting blood glucose level (FIG. 1) ([2]; 25 or 35 mg/Kg, bid, oral): had no effects

COc1ccc(CCN(C)CCC[C@](C#N)(c2ccc(OC)c(OC)c2)C(C)C)cc1OC.Cl [R-VMP, (R)-(+)-verapamil HCl]
effect on HbA1c level (FIG. 4) (NIDDM mice [3]; 15 mg/Kg, bid): no effect
effect on HbA1c level (FIG. 4) (NIDDM mice [3]; 30 mg/Kg, bid): mild reduction
E = D − A, HbA1c level minus vehicle (NIDDM mice [3]; R-VMP 15 mg/Kg, bid, day 15): −2.5
E = D − A, HbA1c level minus vehicle (NIDDM mice [3]; R-VMP 15 mg/Kg, bid, day 29): 0.9
E = D − A, HbA1c level minus vehicle (NIDDM mice [3]; R-VMP 15 mg/Kg, bid, day 43): −3.8
E = D − A, HbA1c level minus vehicle (NIDDM mice [3]; R-VMP 30 mg/Kg, bid, day 15): −1
E = D − A, HbA1c level minus vehicle (NIDDM mice [3]; R-VMP 30 mg/Kg, bid, day 29): 0.1
E = D − A, HbA1c level minus vehicle (NIDDM mice [3]; R-VMP 30 mg/Kg, bid, day 43): −12.8
E = D − A, HbA1c level minus vehicle (NIDDM mice [3]; R-VMP 50 mg/Kg, bid, day 15): −4.5
E = D − A, HbA1c level minus vehicle (NIDDM mice [3]; R-VMP 50 mg/Kg, bid, day 29): −3.7
E = D − A, HbA1c level minus vehicle (NIDDM mice [3]; R-VMP 50 mg/Kg, bid, day 43): −10.5
effect on fasting blood glucose level compared with control vehicle NIDDM mice (FIG. 2) (NIDDM mice [1]; 50 and 75 mg/Kg, bid): reduced the fasting blood glucose level
E = D − A, blood glucose level minus vehicle (NIDDM mice [4]; R-VMP 15 mg/Kg, bid, day 15): 2.3%
blood glucose level, % of day 0 (NIDDM mice [4]; R-VMP 15 mg/Kg, bid, day 15): 99.4%
E = D − A, blood glucose level minus vehicle (NIDDM mice [4]; R-VMP 15 mg/Kg, bid, day 29): 5.2%
blood glucose level, % of day 0 (NIDDM mice [4]; R-VMP 15 mg/Kg, bid, day 29): 121.6%
E = D − A, blood glucose level minus vehicle (NIDDM mice [4]; R-VMP 15 mg/Kg, bid, day 43): −6.6%
blood glucose level, % of day 0 (NIDDM mice [4]; R-VMP 15 mg/Kg, bid, day 43): 115%
E = D − A, blood glucose level minus vehicle (NIDDM mice [4]; R-VMP 30 mg/Kg, bid, day 15): −9.4%
blood glucose level, % of day 0 (NIDDM mice [4]; R-VMP 30 mg/Kg, bid, day 15): 87.7%
E = D − A, blood glucose level minus vehicle (NIDDM mice [4]; R-VMP 30 mg/Kg, bid, day 29): −12.9%
blood glucose level, % of day 0 (NIDDM mice [4]; R-VMP 30 mg/Kg, bid, day 29): 103.5%
E = D − A, blood glucose level minus vehicle (NIDDM mice [4]; R-VMP 30 mg/Kg, bid, day 43): −21.9%
blood glucose level, % of day 0 (NIDDM mice [4]; R-VMP 30 mg/Kg, bid, day 43): 99.7%
E = D − A, blood glucose level minus vehicle (NIDDM mice [4]; R-VMP 50 mg/Kg, bid, day 15): −14.8%
blood glucose level, % of day 0 (NIDDM mice [4]; R-VMP 50 mg/Kg, bid, day 15): 82.3%
E = D − A, blood glucose level minus vehicle (NIDDM mice [4]; R-VMP 50 mg/Kg, bid, day 29): −22%
blood glucose level, % of day 0 (NIDDM mice [4]; R-VMP 50 mg/Kg, bid, day 29): 94.4%
E = D − A, blood glucose level minus vehicle (NIDDM mice [4]; R-VMP 50 mg/Kg, bid, day 43): −22.9%
blood glucose level, % of day 0 (NIDDM mice [4]; R-VMP 50 mg/Kg, bid, day 43): 98.7%
effect on blood glucose levels (FIG. 3) (NIDDM mice [4]; higher dose, 30 or 50 mg/Kg, bid): could reduce the blood glucose levels
effect on blood glucose level on its own (NIDDM mice [4]; bid): possessed no treatment effect
effect on blood glucose level on its own (NIDDM mice [4]; bid, listed as R-VPM): ineffective
potency in reducing the level of fasting blood glucose, compared between enantiomers (FIG. 1) ([2]; oral, bid, fasting 12 hrs, days 40 and 50): relatively more potent than (S)-(−)-verapamil HCl
dose at which the compound alone is effective in reducing blood glucose level ([2]; taken together of the findings in the working examples): ≥ 25 mg/Kg, bid

COc1ccc(CCN(C)CCC[C@@](C#N)(c2ccc(OC)c(OC)c2)C(C)C)cc1OC.Cl [S-VPM, (S)-(−)-verapamil HCl]
effect on reduction of fasting blood glucose level (FIG. 2) (NIDDM mice [1]; dose not printed in the sentence (bid)): neither racemic verapamil HCl (30 mg/Kg, bid) nor (S)-(−)-verapamil HCl, possessed any effect

CN(C)C(=N)N=C(N)N [metformin, reference compound]
effect on HbA1c level (FIG. 4) (NIDDM mice [3]; metformin): significantly reduce HbA1c level
C = B − A, HbA1c level minus vehicle (NIDDM mice [3]; day 15): −5.5
HbA1c level relative to day 0 = 100 (NIDDM mice [3]; day 15): 114.7
C = B − A, HbA1c level minus vehicle (NIDDM mice [3]; day 29): −2.5
HbA1c level relative to day 0 = 100 (NIDDM mice [3]; day 29): 124.9
C = B − A, HbA1c level minus vehicle (NIDDM mice [3]; day 43): −3
HbA1c level relative to day 0 = 100 (NIDDM mice [3]; day 43): 133
effect on level of fasting blood glucose (FIG. 2) (NIDDM mice [1]; metformin 300 mg/Kg): reduced the level of fasting blood glucose
C = B − A, blood glucose level minus vehicle (NIDDM mice [4]; [5]): −31.8%
blood glucose level, % of day 0 (NIDDM mice [4]; [5]): 65.3%
C = B − A, blood glucose level minus vehicle (NIDDM mice [4]; [6]): −12.8%
blood glucose level, % of day 0 (NIDDM mice [4]; [6]): 103.6%
C = B − A, blood glucose level minus vehicle (NIDDM mice [4]; [7]): −12.8%
blood glucose level, % of day 0 (NIDDM mice [4]; [7]): 108.8%
reduction of blood glucose level compared with the vehicle group (NIDDM mice [4]; day 15): about 31.8%
reduction of blood glucose level compared with the vehicle group (NIDDM mice [4]; day 29): ~12.8%
reduction of blood glucose level compared with the vehicle group (NIDDM mice [4]; day 43): ~12.8%
effect on blood glucose levels (FIG. 3) (NIDDM mice [4]; metformin, days 15, 29 and 43): could reduce the blood glucose levels

insulin [reference compound]
effect on level of non-fasting or fasting blood glucose (FIG. 1) ([2]; insulin subcutaneously 90 minutes before measurement): capable of reducing
